Reference: patent US6683027B2, “Herbicidal mixtures” (BASF Aktienegesellschaft, priority 2000, dated 2004)

How the values were obtained:
Test in all cases: greenhouse post-emergence trial, percent damage vs untreated control 21 days after treatment
Format in all cases: in vivo
Apera spica-venti = settings: APESV; for mecoprop alone (% control): Example 7; for pendimethalin alone (% control): Example 14
Description: (§1) The trials are carried out under greenhouse conditions in pre- and post-emergence applications. The plant seeds are sown in pots containing a loamy sand soil (0.5 l). The herbicides are applied as single treatments, or in a combination comprising a compound of formula I and compound selected from group (2) as defined above, before or after emergence of weeds and crop. The herbicidal performance is assessed as percent damage in comparison to the untreated control plants. The assessment is done 21 days after the treatment. Wheat and barley are treated at the 3-4 leaf stage, the broad-leaf weeds at the 2-4 leaf stage and annual grasses at the 2-3 leaf stage.

Stellaria media = settings: STEME, Example 13
Description: as §1

Alopecurus myosuroides = settings: ALOMY; for fenoxaprop alone (% control): Example 13; for flupyrsulfuron alone (% control): Example 5; for pendimethalin alone (% control): Example 14
Description: as §1

Matricaria inodora = settings: 30 g/ha, MATIN, Example 13
Description: as §1

Lolium perenne = settings: LOLPE; for fenoxaprop alone (% control): Example 13; for mecoprop alone (% control): Example 7
Description: as §1

Setaria viridis = settings: SETVI; for flupyrsulfuron alone (% control): Example 5
Description: as §1

Galium aparine = settings: GALAP; for flupyrsulfuron alone (% control): Example 5
Description: as §1

Lamium purpureum = settings: LAMPU; for ioxynil alone (% control): Example 8; for mecoprop alone (% control): Example 7
Description: as §1

## CC(Oc1ccc(Oc2nc3ccc(Cl)cc3o2)cc1)C(=O)O (centres unmarked) [fenoxaprop, reference compound]
Apera spica-venti; 30 g/ha, Example 13
  fenoxaprop alone (% control): 58%
Stellaria media; 30 g/ha
  fenoxaprop alone (% control): 0%
Stellaria media; 60 g/ha
  fenoxaprop alone (% control): 0%
Alopecurus myosuroides; 15 g/ha
  fenoxaprop alone (% control): 0%
Alopecurus myosuroides; 30 g/ha
  fenoxaprop alone (% control): 0%
Matricaria inodora
  fenoxaprop alone (% control): 0%
Lolium perenne; 15 g/ha
  fenoxaprop alone (% control): 3%
Lolium perenne; 60 g/ha
  fenoxaprop alone (% control): 43%

## COc1cc(OC)nc(NC(=O)NS(=O)(=O)c2nc(C(F)(F)F)ccc2C(=O)O)n1 [flupyrsulfuron, reference compound]
Setaria viridis; 2.5 g/ha
  flupyrsulfuron alone (% control): 0%
Setaria viridis; 5 g/ha
  flupyrsulfuron alone (% control): 10%
Setaria viridis; 10 g/ha
  flupyrsulfuron alone (% control): 10%
Apera spica-venti; 2.5 g/ha, Example 5
  flupyrsulfuron alone (% control): 0%
Alopecurus myosuroides; 2.5 g/ha
  flupyrsulfuron alone (% control): 35%
Alopecurus myosuroides; 5 g/ha
  flupyrsulfuron alone (% control): 53%
Alopecurus myosuroides; 10 g/ha
  flupyrsulfuron alone (% control): 73%
Galium aparine; 5 g/ha
  flupyrsulfuron alone (% control): 0%
Galium aparine; 10 g/ha
  flupyrsulfuron alone (% control): 0%
Lolium perenne; 10 g/ha, Example 5
  flupyrsulfuron alone (% control): 10%

## N#Cc1cc(I)c(O)c(I)c1 [ioxynil]
Apera spica-venti; 120 g/ha, Example 8
  ioxynil alone (% control): 0%
Lolium perenne; 240 g/ha, Example 8
  ioxynil alone (% control): 0%
Lamium purpureum; 60 g/ha
  ioxynil alone (% control): 0%
Lamium purpureum; 120 g/ha
  ioxynil alone (% control): 15%
Lamium purpureum; 240 g/ha
  ioxynil alone (% control): 28%

## Cc1cc(Cl)ccc1OC(C)C(=O)O (centres unmarked) [mecoprop, reference compound]
Apera spica-venti; 240 g/ha
  mecoprop alone (% control): 0%
Apera spica-venti; 480 g/ha
  mecoprop alone (% control): 0%
Apera spica-venti; 960 g/ha
  mecoprop alone (% control): 0%
Lolium perenne; 240 g/ha
  mecoprop alone (% control): 0%
Lolium perenne; 480 g/ha
  mecoprop alone (% control): 0%
Lolium perenne; 960 g/ha
  mecoprop alone (% control): 0%
Lamium purpureum; 240 g/ha
  mecoprop alone (% control): 10%
Lamium purpureum; 480 g/ha
  mecoprop alone (% control): 48%

## CCC(CC)Nc1c([N+](=O)[O-])cc(C)c(C)c1[N+](=O)[O-] [pendimethalin, reference compound]
Setaria viridis; 480 g/ha, Example 14
  pendimethalin alone (% control): 40%
Apera spica-venti; 120 g/ha
  pendimethalin alone (% control): 5%
Apera spica-venti; 240 g/ha
  pendimethalin alone (% control): 40%
Alopecurus myosuroides; 120 g/ha
  pendimethalin alone (% control): 0%
Alopecurus myosuroides; 240 g/ha
  pendimethalin alone (% control): 15%
Galium aparine; 120 g/ha, Example 14
  pendimethalin alone (% control): 23%

## CCS(=O)(=O)c1nc2ccccn2c1S(=O)(=O)NC(=O)Nc1nc(OC)cc(OC)n1 [sulfosulfuron, reference compound]
Lolium perenne; 3.75 g/ha, Example 6
  sulfosulfuron alone (% control): 18%
